Measured values taken from ChEMBL document CHEMBL4477234, “Potent Suppressive Effects of 1-Piperidinylimidazole Based Novel P2X7 Receptor Antagonists on Cancer Cell Migration and Invasion” (J Med Chem, 2016).
Calls of active or inactive are those of the source. The rule behind the calls is not given here.

Tests used:
[1] = system: MDA-MB-231; assay: Cytotoxicity against human MDA-MB-231 cells assessed as reduction in cell viability at 2.5 to 10 uM measured after 48 hrs by WST-1 cell viability assay; assay type: cell-based; settings: mda-mb-231, 48 h
[2] = biological target: T1, P2X purinoceptor 2 (Homo sapiens) (UniProt Q9UBL9); assay: Antagonist activity at human P2X2 receptor expressed in human 1321N1 cells assessed as inhibition of ATP-induced calcium influx at 1 uM preincubated for 30 mins prior to ATP-stimulation by calcium influx assay; assay type: cell-based
T1 sequence (whole entry): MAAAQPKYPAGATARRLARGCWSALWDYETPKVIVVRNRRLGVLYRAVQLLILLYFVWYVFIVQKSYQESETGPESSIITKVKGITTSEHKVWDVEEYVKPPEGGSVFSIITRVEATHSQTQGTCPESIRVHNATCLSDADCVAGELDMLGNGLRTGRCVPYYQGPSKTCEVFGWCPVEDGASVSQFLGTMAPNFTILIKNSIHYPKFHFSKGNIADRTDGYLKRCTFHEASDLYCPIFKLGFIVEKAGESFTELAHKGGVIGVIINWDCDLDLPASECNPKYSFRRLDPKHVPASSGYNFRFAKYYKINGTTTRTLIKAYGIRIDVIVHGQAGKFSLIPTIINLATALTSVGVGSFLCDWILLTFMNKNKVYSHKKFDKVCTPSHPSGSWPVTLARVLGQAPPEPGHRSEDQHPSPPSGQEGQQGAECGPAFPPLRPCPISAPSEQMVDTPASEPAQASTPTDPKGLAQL

[3] = biological target: T2, P2X purinoceptor 3 (Homo sapiens, UniProt P56373); assay: Antagonist activity at human P2X3 receptor expressed in human 1321N1 cells assessed as inhibition of ATP-induced calcium influx preincubated for 30 mins prior to ATP-stimulation by calcium influx assay; assay type: cell-based
T2 sequence (P56373 whole entry): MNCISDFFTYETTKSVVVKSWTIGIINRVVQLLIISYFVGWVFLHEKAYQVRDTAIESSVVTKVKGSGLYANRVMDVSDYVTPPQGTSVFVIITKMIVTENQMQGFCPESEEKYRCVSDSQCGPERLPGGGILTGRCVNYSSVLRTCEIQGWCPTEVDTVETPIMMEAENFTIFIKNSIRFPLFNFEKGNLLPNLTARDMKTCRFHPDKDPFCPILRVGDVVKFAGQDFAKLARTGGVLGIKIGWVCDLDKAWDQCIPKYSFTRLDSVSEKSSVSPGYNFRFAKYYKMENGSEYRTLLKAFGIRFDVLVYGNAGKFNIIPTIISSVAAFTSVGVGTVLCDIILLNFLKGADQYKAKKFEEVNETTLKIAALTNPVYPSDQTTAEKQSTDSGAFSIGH

[4] = Toxicity in zebrafish assessed as induction of teratogenic developmental toxicity at 10 uM; parameters: species or system Danio rerio; settings: in vivo
[5] = biological target: T3, P2X purinoceptor 7 (Homo sapiens, UniProt Q99572); assay: Antagonist activity at human P2X7 receptor expressed in HEK293 cells assessed as inhibition of BzATP-induced EtBr uptake measured after 2 hrs by fluorescence analysis; assay type: cell-based
T3 sequence (Q99572 whole entry): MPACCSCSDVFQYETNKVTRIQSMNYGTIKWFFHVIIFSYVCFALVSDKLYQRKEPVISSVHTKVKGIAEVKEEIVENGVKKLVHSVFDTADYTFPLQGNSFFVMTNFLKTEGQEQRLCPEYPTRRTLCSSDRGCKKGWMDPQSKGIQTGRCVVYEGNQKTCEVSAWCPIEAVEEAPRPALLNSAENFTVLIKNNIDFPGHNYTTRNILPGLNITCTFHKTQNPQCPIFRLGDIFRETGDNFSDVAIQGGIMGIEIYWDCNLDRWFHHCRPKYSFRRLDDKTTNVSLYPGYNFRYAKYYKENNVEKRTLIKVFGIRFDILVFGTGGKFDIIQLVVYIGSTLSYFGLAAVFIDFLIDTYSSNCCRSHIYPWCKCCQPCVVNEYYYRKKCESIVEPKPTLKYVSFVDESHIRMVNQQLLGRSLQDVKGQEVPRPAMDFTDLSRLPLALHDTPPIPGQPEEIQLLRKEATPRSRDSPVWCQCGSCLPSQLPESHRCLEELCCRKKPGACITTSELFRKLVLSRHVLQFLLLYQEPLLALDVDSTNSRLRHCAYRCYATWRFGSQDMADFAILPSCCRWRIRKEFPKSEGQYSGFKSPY

[6] = biological target: T4, P2X purinoceptor 4 (Homo sapiens) (UniProt Q99571); assay: Antagonist activity at human P2X4 receptor expressed in human 1321N1 cells assessed as inhibition of ATP-induced calcium influx at 1 uM preincubated for 30 mins prior to ATP-stimulation by calcium influx assay; assay type: cell-based
T4 sequence (whole entry): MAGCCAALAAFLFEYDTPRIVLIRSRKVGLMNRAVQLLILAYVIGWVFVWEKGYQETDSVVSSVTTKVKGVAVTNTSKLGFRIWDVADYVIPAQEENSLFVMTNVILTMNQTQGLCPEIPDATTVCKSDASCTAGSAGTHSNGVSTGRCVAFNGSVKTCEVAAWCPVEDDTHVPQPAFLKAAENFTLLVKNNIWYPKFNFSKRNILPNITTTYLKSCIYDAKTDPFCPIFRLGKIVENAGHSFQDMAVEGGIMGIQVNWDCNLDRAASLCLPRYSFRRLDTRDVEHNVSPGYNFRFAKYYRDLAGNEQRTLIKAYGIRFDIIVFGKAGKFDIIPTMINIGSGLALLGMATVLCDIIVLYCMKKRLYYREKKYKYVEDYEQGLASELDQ

[7] = species on record: Homo sapiens; assay: Selectivity ratio, ratio of IC50 for human P2X3 receptor expressed in human 1321N1 cells to human P2X7 receptor expressed in HEK293 cells; assay type: cell-based
[8] = biological target: T3, P2X purinoceptor 7; assay: Antagonist activity at human P2X7 receptor in LPS/IFN-gamma-differentiated human THP-1 cells assessed as suppression of BzATP-stimulated IL-1beta release per-incubated for 30 mins before BzATP addition and measured after 30 mins by ELISA; assay type: cell-based
[9] = system: MDA-MB-231; assay: Antiinvasive activity against human MDA-MB-231 cells measured after 48 hrs by transwell invasion assay; assay type: functional, cell-based; settings: MDA-MB-231, 48 h
[10] = biological target: T5, P2X purinoceptor 1 (Homo sapiens) (UniProt P51575); assay: Antagonist activity at human P2X1 receptor expressed in human 1321N1 cells assessed as inhibition of ATP-induced calcium influx at 1 uM preincubated for 30 mins prior to ATP-stimulation by calcium influx assay; assay type: cell-based
T5 sequence (whole entry): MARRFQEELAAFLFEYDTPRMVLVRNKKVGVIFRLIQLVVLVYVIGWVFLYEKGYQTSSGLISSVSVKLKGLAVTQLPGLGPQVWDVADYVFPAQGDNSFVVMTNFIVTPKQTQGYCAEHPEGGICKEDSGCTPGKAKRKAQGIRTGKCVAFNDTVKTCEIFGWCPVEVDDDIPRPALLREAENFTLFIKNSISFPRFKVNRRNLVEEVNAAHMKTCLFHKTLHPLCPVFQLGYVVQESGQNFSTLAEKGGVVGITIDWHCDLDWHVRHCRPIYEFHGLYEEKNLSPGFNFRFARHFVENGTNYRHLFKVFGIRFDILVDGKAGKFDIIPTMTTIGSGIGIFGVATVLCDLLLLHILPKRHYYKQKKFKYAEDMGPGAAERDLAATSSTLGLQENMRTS

[11] = system: MDA-MB-231; assay: Antimigratory activity against human MDA-MB-231 cells xenografted in zebrafish assessed as inhibition of cell dissemination and invasion at 10 uM measured after 4 days by fluorescence microscopic analysis relative to control; assay type: functional, cell-based
[12] = system: MDA-MB-231; assay: Cytotoxicity against human MDA-MB-231 cells assessed as reduction in cell viability at 10 uM measured after 48 hrs by WST-1 cell viability assay; assay type: cell-based; settings: mda-mb-231, 48 h
[13] = biological target: T6, P2X purinoceptor 3 (Homo sapiens) (UniProt P56373); assay: Antagonist activity at human P2X3 receptor expressed in human 1321N1 cells assessed as inhibition of ATP-induced calcium influx at 1 uM preincubated for 30 mins prior to ATP-stimulation by calcium influx assay; assay type: cell-based
T6 sequence (whole entry): T2 sequence (P56373 whole entry)

[14] = biological target: T3, P2X purinoceptor 7; assay: Antagonist activity at human P2X7 receptor
[15] = biological target: T7, P2X purinoceptor 3 (Rattus norvegicus, UniProt P49654); assay: Antagonist activity at P2X3 receptor in Wistar rat DRG neurons assessed as inhibition of alpha/beta-meATP-induced currents preincubated for 5 mins prior to alpha/beta-meATP-stimulation measured at every sec for 5 mins by whole cell patch-clamp assay
T7 sequence (P49654 whole entry): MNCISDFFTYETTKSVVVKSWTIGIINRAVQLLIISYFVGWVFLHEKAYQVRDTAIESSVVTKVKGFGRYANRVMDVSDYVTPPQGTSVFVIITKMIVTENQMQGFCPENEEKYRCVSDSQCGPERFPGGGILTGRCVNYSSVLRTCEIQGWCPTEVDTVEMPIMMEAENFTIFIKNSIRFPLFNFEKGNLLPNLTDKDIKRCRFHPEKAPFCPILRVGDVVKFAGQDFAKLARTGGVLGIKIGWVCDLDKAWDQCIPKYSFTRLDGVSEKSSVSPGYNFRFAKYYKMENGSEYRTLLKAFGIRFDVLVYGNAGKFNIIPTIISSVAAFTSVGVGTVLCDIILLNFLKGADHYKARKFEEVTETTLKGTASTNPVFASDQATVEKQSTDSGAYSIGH

[16] = biological target: T4, P2X purinoceptor 4 (Homo sapiens); assay: Antagonist activity at human P2X4 receptor expressed in human 1321N1 cells assessed as inhibition of ATP-induced calcium influx at 10 uM preincubated for 30 mins prior to ATP-stimulation by calcium influx assay; assay type: cell-based
[17] = biological target: T8, P2X purinoceptor 2 (Homo sapiens, UniProt Q9UBL9); assay: Antagonist activity at human P2X2 receptor expressed in human 1321N1 cells assessed as inhibition of ATP-induced calcium influx preincubated for 30 mins prior to ATP-stimulation by calcium influx assay; assay type: cell-based
T8 sequence (Q9UBL9 whole entry): T1 sequence (whole entry)

[18] = biological target: T9, P2X purinoceptor 1 (Rattus norvegicus, UniProt P47824); assay: Antagonist activity at P2X1 receptor in rat vas deferens assessed as inhibition of alpha/beta-meATP-induced calcium influx
T9 sequence (P47824 whole entry): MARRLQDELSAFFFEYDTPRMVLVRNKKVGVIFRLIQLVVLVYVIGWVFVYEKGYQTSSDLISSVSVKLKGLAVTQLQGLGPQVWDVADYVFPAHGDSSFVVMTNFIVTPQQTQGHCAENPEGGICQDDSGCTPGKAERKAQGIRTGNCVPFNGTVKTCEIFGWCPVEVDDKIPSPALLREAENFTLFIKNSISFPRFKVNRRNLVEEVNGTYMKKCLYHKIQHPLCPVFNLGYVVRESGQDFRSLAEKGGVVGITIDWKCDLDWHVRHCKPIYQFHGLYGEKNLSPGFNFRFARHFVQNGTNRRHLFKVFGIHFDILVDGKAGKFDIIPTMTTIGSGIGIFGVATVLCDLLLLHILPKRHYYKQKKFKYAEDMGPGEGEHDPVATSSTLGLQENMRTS

| SMILES | inhibition [2] [%] | IC50 [3] [nM] | Activity [4] | IC50 [5] [nM] | inhibition [6] [%] | Ratio IC50 [7] | IC50 [8] [nM] | IC50 [9] [nM] | inhibition [10] [%] | inhibition [11] | other results |
| --- | --- | --- | --- | --- | --- | --- | --- | --- | --- | --- | --- |
| CN(C)c1ccc(C(=O)N2CCC(n3cncc3-c3ccc(OS(=O)(=O)c4cccc(C(=O)NC5CC5)c4)cc3)CC2)cc1 | 7 | 910 | Non-Toxic | 0.49 | 7 | 1000 to 7000 | 1.03 | 3630 | 22 | Active | Activity [1]: Non-Toxic |
| CN(C)c1ccc(C(=O)N2CCC(n3cncc3-c3ccc(OS(=O)(=O)c4cccc5cnccc45)cc3)CC2)cc1 | 11 | 800 | Non-Toxic | 0.11 | 15 | 1000 to 7000 | 2.19 | 2680 | 26 | Active | Activity [12]: 71% |
| CS(=O)(=O)c1ccc(C(=O)N2CCC(c3nc4cc(OS(=O)(=O)c5cccc6cnccc56)ccc4[nH]3)CC2)cc1 | 7 |  |  | 7 | 15 |  | 43 |  | 16 | inactive | inhibition [13]: 3% |
| O=C(NCC12CC3CC(CC(C3)C1)C2)c1cc(CCCNCCCO)ccc1Cl |  |  |  |  |  |  | 0.06 | 8700 |  | Active | IC50 [14]: 10 to 13 nM |
| O=C(Nc1cc(C(=O)Nc2ccc(S(=O)(=O)O)cc2)cc(C(=O)Nc2ccc(S(=O)(=O)O)cc2)c1)Nc1cc(C(=O)Nc2ccc(S(=O)(=O)O)cc2)cc(C(=O)Nc2ccc(S(=O)(=O)O)cc2)c1 |  | 1580 |  |  |  |  |  |  |  |  | IC50 [15]: 527 nM |
| O=C1NC(=O)N(C2CCN(C(=O)c3ccc(Cl)c(C(F)(F)F)c3)CC2)C1Cc1ccc(OS(=O)(=O)c2cccc3cnccc23)cc1 (stereo not given) | 5 | 600 |  |  | 0 |  | 54 |  | 28 |  |  |
| Nc1c(S(=O)(=O)O)cc(Nc2ccc(S(=O)(=O)O)c(Nc3nc(Cl)nc(Cl)n3)c2)c2c1C(=O)c1ccccc1C2=O |  |  |  |  |  |  |  |  |  |  | inhibition [16]: 3%; IC50 [17]: 692 nM |
| COc1ccc(CC(=O)NC(N/C(=N/C#N)Nc2cccc3ncccc23)C(C)(C)C)cc1OC (stereo not given) |  |  |  |  |  |  |  |  |  |  | IC50 [14]: 90 nM |
| Cc1ccc(C(=O)Nc2ccc(S(=O)(=O)O)c3cc(S(=O)(=O)O)cc(S(=O)(=O)O)c23)cc1NC(=O)c1cccc(NC(=O)Nc2cccc(C(=O)Nc3cc(C(=O)Nc4ccc(S(=O)(=O)O)c5cc(S(=O)(=O)O)cc(S(=O)(=O)O)c45)ccc3C)c2)c1 [SURAMIN] |  |  |  |  |  |  |  |  |  |  | IC50 [18]: 4680 nM |
| CN(C)c1ccc(C(=O)N2CCN(c3cc(=O)[nH]c(=O)n3Cc3ccc(OS(=O)(=O)c4cccc5cnccc45)cc3)CC2)cc1 | 2 | 2660 | Non-Toxic | 1.53 | 6 | 1000 to 7000 | 1.33 | 2590 | 23 | Active | Activity [1]: Non-Toxic |
